In ChEMBL document CHEMBL1141393 (J Med Chem, 2007):
≈ marks a conversion by molar mass, not a printed value.

Columns and labels:
Plasmodium falciparum [1] = test: Antiplasmodial activity against chloroquine-resistant Plasmodium falciparum K1; format: functional, organism-based
Plasmodium falciparum [2] = test: Antiplasmodial activity against chloroquine-sensitive Plasmodium falciparum 3D7; format: functional, organism-based
Plasmodium falciparum [3] = test: Antiplasmodial activity against chloroquine-sensitive Plasmodium falciparum D10; format: functional, organism-based
Plasmodium falciparum [4] = test: Antiplasmodial activity against chloroquine-resistant Plasmodium falciparum W2; format: functional, organism-based
Aspergillus fumigatus [5] = test: Antifungal activity against Aspergillus fumigatus; format: functional
Candida parapsilosis = test: Antifungal activity against Candida parapsilosis ATCC 22019; format: functional; conditions: Lodderomyces parapsilosis
Daudi = test: Cytotoxicity against human Daudi cell line; format: cell-based
[6] = Cytotoxicity against human lymphocytes; format: cell-based; conditions: Lymphocyte
KB = test: Cytotoxicity against human KB cell line; format: cell-based
Pichia kudriavzevii = test: Antifungal activity against Candida krusei ATCC 6258; format: functional
Aspergillus flavus = test: Antifungal activity against Aspergillus flavus ATCC 204304; format: functional
Candida albicans = test: Antifungal activity against Candida albicans; format: functional
Cryptococcus neoformans = test: Antifungal activity against Cryptococcus neoformans; format: functional
Aspergillus fumigatus [7] = test: Antifungal activity against itraconazole resistant Aspergillus fumigatus; format: functional

Row | SMILES | IC50 (Plasmodium falciparum [1]) | IC50 (Plasmodium falciparum [2]) | IC50 (Plasmodium falciparum [3]) | IC50 (Plasmodium falciparum [4]) | MIC (Aspergillus fumigatus [5]) | MIC (Candida parapsilosis) | IC50 (Daudi) | IC50 [6] | IC50 (KB) | MIC (Pichia kudriavzevii) | MIC (Aspergillus flavus) | MIC (Candida albicans) | MIC (Cryptococcus neoformans) | MIC (Aspergillus fumigatus [7])
1 | N#CC(c1ccccc1)(c1ccc(Cl)cc1)c1ccc(CN2CCCC2)cc1 (racemic) | 2640 nM | 5070 nM |  |  |  |  |  |  |  |  |  |  |  | 
2 | OC(c1ccccc1)(c1ccc(Cl)cc1)c1ccc(CN2CCCC2)cc1 (racemic) | 2170 nM | > 10000 nM | 8300 nM |  |  |  |  |  |  |  |  |  |  | 
3 | Clc1ccc(C(c2ccccc2)(c2ccc(CN3CCCC3)cc2)N2CCCC2)cc1 (racemic) | 1990 nM | 940 nM | 4810 nM | 2570 nM |  |  |  |  |  |  |  |  |  | 
4 | Clc1ccccc1C(CNCN1CCCC1)n1ccnc1 (racemic) | 920 nM | 2610 nM | 9430 nM | 3050 nM |  |  |  |  |  |  |  |  |  | 
5 | Clc1ccc(C(c2ccccc2)(c2ccc(CN3CCCC3)cc2)n2ccnc2)cc1 (racemic) |  |  |  |  | > 32 µg/mL | 32 µg/mL (≈ 74.8 µM) | 58000 nM | 70000 nM | 70000 nM | 16 µg/mL (≈ 37.4 µM) | > 32 µg/mL | 32 µg/mL (≈ 74.8 µM) | > 32 µg/mL | 
6 | Clc1ccc(C(Cn2ccnc2)(c2ccccc2)c2ccc(CN3CCCC3)cc2)cc1 (racemic) | 520 nM | 750 nM |  |  |  |  |  |  |  |  |  |  |  | 
7 | Clc1ccccc1C(c1ccc(CN2CCCC2)cc1)n1ccnc1 (racemic) | 110 nM | 11 nM | 2180 nM | 1700 nM | > 32 µg/mL | > 32 µg/mL |  |  |  | > 32 µg/mL | > 32 µg/mL | > 32 µg/mL | > 32 µg/mL | 
8 | CCN(CC)Cc1ccc(C(c2ccccc2Cl)n2cncn2)cc1 (racemic) | 790 nM | > 10000 nM | > 10000 nM | > 10000 nM |  |  |  |  |  |  |  |  |  | 
9 | Clc1ccc(C(c2ccc(CN3CCCC3)cc2)n2ccnc2)cc1 (racemic) | 170 nM | 310 nM | 1660 nM | 1130 nM | > 32 µg/mL | > 32 µg/mL |  |  |  | > 32 µg/mL | > 32 µg/mL | > 32 µg/mL | > 32 µg/mL | 
10 | COc1ccc(C(c2ccccc2)(c2ccc(CN3CCCC3)cc2)n2ccnc2)cc1 (racemic) | 5930 nM | 8130 nM | 2040 nM | 1840 nM |  |  |  |  |  |  |  |  |  | 
11 | Clc1cccc(C(c2ccc(CN3CCCC3)cc2)n2ccnc2)c1 (racemic) | 200 nM | 110 nM | 1420 nM | 1030 nM | > 32 µg/mL | > 32 µg/mL |  |  |  | > 32 µg/mL | > 32 µg/mL | > 32 µg/mL | > 32 µg/mL | 
12 | CCN(CC)CCCNCC(c1ccccc1Cl)n1ccnc1 (racemic) | 3080 nM | 1900 nM | 6410 nM | 4460 nM |  |  |  |  |  |  |  |  |  | 
13 | Clc1ccc(C(c2ccccc2)(c2ccc(CN3CCCC3)cc2)n2cncn2)cc1 (racemic) | 2150 nM | 8910 nM | 6920 nM | 3830 nM |  |  |  |  |  |  |  |  |  | 
14 | Clc1cccc(C(c2ccccc2)(c2ccc(CN3CCCC3)cc2)n2ccnc2)c1 (racemic) | 23 nM | 47 nM | 230 nM | 100 nM |  |  |  |  |  |  |  |  |  | 
15 | Clc1ccccc1C(c1ccccc1)(c1ccccc1)n1ccnc1 [CLOTRIMAZOLE] |  |  |  |  | 4 µg/mL (≈ 11.6 µM) | 2 µg/mL (≈ 5.8 µM) |  |  |  | 2 µg/mL (≈ 5.8 µM) | 4 µg/mL (≈ 11.6 µM) | 0.03 µg/mL (≈ 0.087 µM) | 2 µg/mL (≈ 5.8 µM) | 4 µg/mL (≈ 11.6 µM)
